Results reported in ChEMBL document CHEMBL2303647, “Data associated with the publication PLoS ONE, 8(3), e57888, (2013) PMID: 23505445. Compounds: GSK PKIS; Assays: NIH NCATS”.
Entries after “also recorded” stand apart in the source; their conditions may differ.

Tests used:
[1] = target: Luciferin 4-monooxygenase (Photinus pyralis, UniProt P08659)
Description: GSK_PKIS: Inhibition of Firefly Luciferase (Data from PubChem: AID 652016) [NIH NCATS]

[2] = target: T1, Coelenterazine h 2-monooxygenase (Renilla reniformis, UniProt P27652)
T1 sequence (P27652 whole entry): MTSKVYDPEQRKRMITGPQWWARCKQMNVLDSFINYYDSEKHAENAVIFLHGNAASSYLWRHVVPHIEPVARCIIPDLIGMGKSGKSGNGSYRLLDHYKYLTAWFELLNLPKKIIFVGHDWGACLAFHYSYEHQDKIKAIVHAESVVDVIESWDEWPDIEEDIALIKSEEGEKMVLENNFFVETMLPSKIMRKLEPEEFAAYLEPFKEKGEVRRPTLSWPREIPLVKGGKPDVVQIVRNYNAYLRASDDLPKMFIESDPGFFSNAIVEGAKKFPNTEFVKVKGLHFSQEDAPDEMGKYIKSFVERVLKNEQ
Description: GSK_PKIS: Inhibition of Sea Pansy Luciferase (Data from PubChem: AID 652015) [NIH NCATS]

Luciferin 4-monooxygenase, sequence (P08659 whole entry): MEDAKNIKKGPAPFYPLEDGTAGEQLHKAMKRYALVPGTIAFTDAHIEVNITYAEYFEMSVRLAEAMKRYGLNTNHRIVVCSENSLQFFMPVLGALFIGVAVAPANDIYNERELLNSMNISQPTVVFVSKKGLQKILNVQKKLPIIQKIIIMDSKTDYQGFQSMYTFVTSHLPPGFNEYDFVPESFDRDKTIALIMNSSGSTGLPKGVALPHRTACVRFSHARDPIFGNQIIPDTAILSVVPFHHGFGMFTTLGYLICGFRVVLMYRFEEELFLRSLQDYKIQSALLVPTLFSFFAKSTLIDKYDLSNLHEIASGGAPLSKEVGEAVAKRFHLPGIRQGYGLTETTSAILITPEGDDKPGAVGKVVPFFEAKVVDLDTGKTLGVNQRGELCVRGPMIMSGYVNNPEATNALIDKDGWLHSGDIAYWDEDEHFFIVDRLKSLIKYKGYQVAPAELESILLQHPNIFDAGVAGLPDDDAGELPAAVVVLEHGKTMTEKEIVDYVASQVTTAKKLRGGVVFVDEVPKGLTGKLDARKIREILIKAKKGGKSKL

SMILES: O=C(Nc1n[nH]c2nc(-c3ccco3)ccc12)C1CC1
- AC50 [1]: Phenotype: Inactive; Curve_Description: None
- AC50 [2]: Phenotype: Inactive; Curve_Description: None

SMILES: CS(=O)(=O)Nc1ccc(-c2ccc3c(NC(=O)C4CC4)n[nH]c3c2)cc1
- AC50 ([1]; read-out: AC50): 20.6 µM
- AC50 [2]: Phenotype: Inactive; Curve_Description: None

SMILES: CS(=O)(=O)Nc1cccc(-c2ccc3c(NC(=O)C4CC4)n[nH]c3c2)c1
- AC50 ([1]; read-out: AC50): 20.6 µM
- AC50 [2]: Phenotype: Inactive; Curve_Description: None

SMILES: NS(=O)(=O)c1ccc(-c2ccc3c(NC(=O)C4CC4)n[nH]c3c2)cc1
- AC50 [1]: Phenotype: Inactive; Curve_Description: None
- AC50 [2]: Phenotype: Inactive; Curve_Description: None

SMILES: N#Cc1ccc(Oc2nccc(-c3c(-c4ccc(F)cc4)ncn3C3CCNCC3)n2)cc1
- AC50 [1]: Phenotype: Inactive; Curve_Description: None
- AC50 [2]: Phenotype: Inactive; Curve_Description: None

SMILES: O=C1NC(=O)C(c2cccc(Cl)c2)=C1Nc1ccc(Cl)c(C(=O)O)c1
- AC50 [1]: Phenotype: Inactive; Curve_Description: None
- AC50 [2]: Phenotype: Inactive; Curve_Description: None

SMILES: O=C1NC(=O)C(c2cccc(Cl)c2)=C1Nc1ccc(O)c(Cl)c1
- AC50 [1]: Phenotype: Inactive; Curve_Description: None
- AC50 ([2]; read-out: AC50): 36.6 µM

SMILES: O=C1NC(=O)C(c2ccc(Cl)cc2)=C1Nc1ccc(Cl)c(C(=O)O)c1
- AC50 [1]: Phenotype: Inactive; Curve_Description: None
- AC50 [2]: Phenotype: Inactive; Curve_Description: None

SMILES: O=C1NC(=O)C(c2ccccc2Cl)=C1Nc1cccc(O)c1
- AC50 [1]: Phenotype: Inactive; Curve_Description: None
- AC50 [2]: Phenotype: Inactive; Curve_Description: None

SMILES: NC(=O)Cc1ccccc1Oc1nccc(-c2c(-c3ccc(F)cc3)ncn2C2CCNCC2)n1
- AC50 [1]: Phenotype: Inactive; Curve_Description: None
- AC50 [2]: Phenotype: Inactive; Curve_Description: None

SMILES: Fc1ccc(-c2ncn(C3CCNCC3)c2-c2ccnc(Oc3ccc(F)c(F)c3)n2)cc1
- AC50 [1]: Phenotype: Inactive; Curve_Description: None
- AC50 [2]: Phenotype: Inactive; Curve_Description: None

SMILES: Cl.ON=C1CCc2cc(-c3nc(C4CCNCC4)[nH]c3-c3ccncc3)ccc21
- AC50 [1]: Phenotype: Inactive; Curve_Description: None
- AC50 [2]: Phenotype: Inactive; Curve_Description: None

SMILES: CN(C)CCOc1ccc(-c2cc(-c3ccc4c(c3)CCC4=NO)c(-c3ccncc3)o2)cc1.Cl
- AC50 [1]: Phenotype: Inactive; Curve_Description: None
- AC50 [2]: Phenotype: Inactive; Curve_Description: None

SMILES: CCn1c(-c2nonc2N)nc2ccncc21
- AC50 [1]: Phenotype: Inactive; Curve_Description: None
- AC50 [2]: Phenotype: Inactive; Curve_Description: None

SMILES: Nc1nonc1-c1nc2cnccc2n1C1CC1
- AC50 [1]: Phenotype: Inactive; Curve_Description: None
- AC50 [2]: Phenotype: Inactive; Curve_Description: None

SMILES: CCn1c(-c2nonc2N)nc2c(N3CCCC3)nccc21
- AC50 [1]: Phenotype: Inactive; Curve_Description: None
- AC50 [2]: Phenotype: Inactive; Curve_Description: None

SMILES: Cn1c(-c2nonc2N)nc2cnccc21
- AC50 [1]: Phenotype: Inactive; Curve_Description: None
- AC50 [2]: Phenotype: Inactive; Curve_Description: None

SMILES: CCOc1nccc2c1nc(-c1nonc1N)n2CC
- AC50 [1]: Phenotype: Inactive; Curve_Description: None
- AC50 [2]: Phenotype: Inactive; Curve_Description: None

SMILES: Nc1nccc(-c2c(-c3ccc(F)cc3)ncn2C2CCC(O)CC2)n1 (configuration not stated)
- AC50 [1]: Phenotype: Inactive; Curve_Description: None
- AC50 [2]: Phenotype: Inactive; Curve_Description: None

SMILES: Nc1nonc1-c1nc2cnccc2n1C1CCCCC1
- AC50 [1]: Phenotype: Inactive; Curve_Description: None
- AC50 [2]: Phenotype: Inactive; Curve_Description: None

SMILES: N#Cc1c(NC(=O)CN2CCOCC2)sc2c1CCCC2.O=C(O)C(=O)O
- AC50 [1]: Phenotype: Inactive; Curve_Description: None
- AC50 [2]: Phenotype: Inactive; Curve_Description: None

SMILES: O=C(Nc1n[nH]c2nnc(-c3cccnc3)cc12)C1CC1.O=C(O)C(F)(F)F
- AC50 [1]: Phenotype: Inactive; Curve_Description: None
- AC50 [2]: Phenotype: Inactive; Curve_Description: None

SMILES: CN1CCC(C(=O)Nc2n[nH]c3nnc(-c4ccccc4)cc23)CC1.Cl
- AC50 [1]: Phenotype: Inactive; Curve_Description: None
- AC50 [2]: Phenotype: Inactive; Curve_Description: None

SMILES: CCN1CCC(C(=O)Nc2n[nH]c3nnc(-c4cccc(F)c4F)cc23)CC1.Cl
- AC50 [1]: Phenotype: Inactive; Curve_Description: None
- AC50 [2]: Phenotype: Inactive; Curve_Description: None

SMILES: CN1CCC(C(=O)Nc2n[nH]c3nc(-c4ccc(O)cc4)c(Br)cc23)CC1.O=C(O)/C=C\C(=O)O
- AC50 [1]: Phenotype: Inactive; Curve_Description: None
- AC50 [2]: Phenotype: Inactive; Curve_Description: None

SMILES: CCn1c(-c2nonc2N)nc2cncc(C(=O)N3CCNCC3)c21.Cl
- AC50 [1]: Phenotype: Inactive; Curve_Description: None
- AC50 [2]: Phenotype: Activator; Curve_Description: None

SMILES: Cl.c1ccc(-c2nc3n(c2-c2ccc4c(c2)OCO4)CCC3)nc1
- AC50 [1]: Phenotype: Inactive; Curve_Description: None
- AC50 [2]: Phenotype: Inactive; Curve_Description: None

SMILES: Cl.NC(=O)c1ccc(-c2nc(-c3ccccn3)c(-c3ccc4c(c3)OCO4)[nH]2)cc1
- AC50 [1]: Phenotype: Inactive; Curve_Description: None
- AC50 [2]: Phenotype: Inactive; Curve_Description: None

SMILES: CCn1c(-c2nonc2N)nc2cncc(C(=O)N3CC[C@H](N)C3)c21.Cl
- AC50 [1]: Phenotype: Inactive; Curve_Description: None
- AC50 [2]: Phenotype: Inactive; Curve_Description: None

SMILES: Cl.Fc1ccc(-c2nc3n(c2-c2ccncc2)CCS3)cc1
- AC50 [1]: Phenotype: Inactive; Curve_Description: None
- AC50 [2]: Phenotype: Inactive; Curve_Description: None

SMILES: Cl.Nc1nccc(-c2c(-c3ccc(F)cc3)ncn2C2CCNCC2)n1
- AC50 [1]: Phenotype: Inactive; Curve_Description: None
- AC50 ([1]; read-out: AC50): 23.1 µM
- AC50 [2]: Phenotype: Inactive; Curve_Description: None; also recorded: Phenotype: Activator; Curve_Description: None

SMILES: Cl.NCc1ccc(-c2nc(-c3ccc(Cl)c(O)c3)c(-c3ccncc3)[nH]2)cc1
- AC50 [1]: Phenotype: Inactive; Curve_Description: None
- AC50 [2]: Phenotype: Inactive; Curve_Description: None

SMILES: CN(C)CCCn1c(-c2nonc2N)nc2cnccc21
- AC50 [1]: Phenotype: Inactive; Curve_Description: None
- AC50 [2]: Phenotype: Inactive; Curve_Description: None

SMILES: CCN1CCC(CC(=O)Nc2n[nH]c3nnc(-c4cccc(F)c4F)cc23)CC1.O=C(O)C(O)C(O)C(=O)O
- AC50 ([1]; read-out: AC50): 41.1 µM
- AC50 [2]: Phenotype: Inactive; Curve_Description: None

SMILES: COc1ccc2cc(-c3c(-c4ccncc4)nc(-c4ccc(S(C)(=O)=O)cc4C)n3C)ccc2c1
- AC50 [1]: Phenotype: Inactive; Curve_Description: None
- AC50 [2]: Phenotype: Inactive; Curve_Description: None

SMILES: O=C(Nc1n[nH]c2nc(-c3ccc(O)cc3)c(Br)cc12)C1CC1
- AC50 ([1]; read-out: AC50): 20.6 µM
- AC50 [2]: Phenotype: Inactive; Curve_Description: None

SMILES: O=C(Nc1n[nH]c2cc(-c3cc(F)ccc3F)ccc12)C1CC1
- AC50 ([1]; read-out: AC50): 16.3 µM
- AC50 [2]: Phenotype: Inactive; Curve_Description: None

SMILES: Fc1ccc(-c2c(-c3ccncc3)nc3n2CCS3)cc1
- AC50 [1]: Phenotype: Inactive; Curve_Description: None
- AC50 [2]: Phenotype: Inactive; Curve_Description: None

SMILES: Fc1ccc(-c2ncn(C3CCNCC3)c2-c2ccnc(Oc3ccc4c(c3)OCO4)n2)cc1
- AC50 ([1]; read-out: AC50): 32.6 µM
- AC50 [2]: Phenotype: Inactive; Curve_Description: None

SMILES: Nc1nccc(-c2c(-c3ccc(F)cc3)ncn2CCCN2CCOCC2)n1
- AC50 [1]: Phenotype: Inactive; Curve_Description: None
- AC50 [2]: Phenotype: Inactive; Curve_Description: None

SMILES: NC(=O)c1ccc(Oc2nccc(-c3c(-c4ccc(F)cc4)ncn3C3CCNCC3)n2)cc1
- AC50 ([1]; read-out: AC50): 29.1 µM
- AC50 [2]: Phenotype: Inactive; Curve_Description: None

SMILES: CN1CCC(n2cnc(-c3ccc(F)cc3)c2-c2ccnc(Nc3ccccc3)n2)CC1
- AC50 [1]: Phenotype: Inactive; Curve_Description: None
- AC50 [2]: Phenotype: Inactive; Curve_Description: None

SMILES: CN1CCC(n2cnc(-c3ccc(F)cc3)c2-c2ccnc(NCCO)n2)CC1
- AC50 ([1]; read-out: AC50): 36.6 µM
- AC50 [2]: Phenotype: Inactive; Curve_Description: None

SMILES: CCc1nccc2c1nc(-c1nonc1N)n2CC
- AC50 [1]: Phenotype: Inactive; Curve_Description: None
- AC50 [2]: Phenotype: Inactive; Curve_Description: None

SMILES: N#Cc1c(NC(=O)c2ccc(F)cc2)sc2c1CCCC2
- AC50 ([1]; read-out: AC50): 0.919 µM
- AC50 [2]: Phenotype: Inactive; Curve_Description: None

SMILES: COc1ccc2cc(-c3c(-c4ccncc4)nc(-c4ccc([S+](C)[O-])cc4)n3C)ccc2c1 (configuration not stated)
- AC50 ([1]; read-out: AC50): 36.6 µM
- AC50 [2]: Phenotype: Inactive; Curve_Description: None

SMILES: O=C(Nc1n[nH]c2cc(-c3ccccc3)ccc12)C1CC1
- AC50 ([1]; read-out: AC50): 18.3 µM
- AC50 [2]: Phenotype: Inactive; Curve_Description: None

SMILES: O=C(Nc1n[nH]c2nc(-c3ccco3)c(Br)cc12)C1CC1
- AC50 ([1]; read-out: AC50): 20.6 µM
- AC50 [2]: Phenotype: Inactive; Curve_Description: None

SMILES: COc1ccc(-c2ccc3c(NC(=O)C4CC4)n[nH]c3n2)cc1
- AC50 ([1]; read-out: AC50): 2.31 µM
- AC50 [2]: Phenotype: Inactive; Curve_Description: None

SMILES: O=C(Nc1n[nH]c2cc(-c3ccc(F)cc3)ccc12)C1CC1
- AC50 ([1]; read-out: AC50): 16.3 µM
- AC50 [2]: Phenotype: Inactive; Curve_Description: None

SMILES: CCc1ccc(Oc2nccc(-c3c(-c4ccc(F)cc4)ncn3C3CCNCC3)n2)cc1
- AC50 [1]: Phenotype: Inactive; Curve_Description: None
- AC50 [2]: Phenotype: Inactive; Curve_Description: None

SMILES: CN1CCC(n2cnc(-c3ccc(F)cc3)c2-c2ccnc(N)n2)CC1
- AC50 [1]: Phenotype: Inactive; Curve_Description: None
- AC50 [2]: Phenotype: Inactive; Curve_Description: None

SMILES: CC1(C)CC(n2cnc(-c3ccc(F)cc3)c2-c2ccnc(N)n2)CC(C)(C)N1
- AC50 ([1]; read-out: AC50): 41.1 µM
- AC50 [2]: Phenotype: Inactive; Curve_Description: None
